{"source": "patent US10842789B2", "about": "“Treatment of schizophrenia” (PIERRE FABRE MEDICAMENT, priority 2017, dated 2020)", "key": {"[1]": {"biological_target": "T1, human recombinant dopamine D2L receptor (Homo sapiens, UniProt P14416)", "T1 construct": "expressed in transfected cells", "T1 sequence (P14416 whole entry)": "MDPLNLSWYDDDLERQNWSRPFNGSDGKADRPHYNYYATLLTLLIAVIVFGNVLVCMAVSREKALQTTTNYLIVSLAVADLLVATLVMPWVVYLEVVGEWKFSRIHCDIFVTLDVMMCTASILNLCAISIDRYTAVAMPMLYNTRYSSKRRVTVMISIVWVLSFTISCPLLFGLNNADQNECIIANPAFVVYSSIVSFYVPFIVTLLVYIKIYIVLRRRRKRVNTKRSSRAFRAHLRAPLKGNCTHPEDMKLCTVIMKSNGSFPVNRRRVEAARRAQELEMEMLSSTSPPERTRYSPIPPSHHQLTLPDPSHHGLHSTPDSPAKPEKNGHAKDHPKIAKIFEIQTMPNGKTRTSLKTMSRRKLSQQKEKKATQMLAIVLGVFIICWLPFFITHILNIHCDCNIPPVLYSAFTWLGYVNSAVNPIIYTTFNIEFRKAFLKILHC", "test": "[3H] spiperone binding, cells expressing human recombinant dopamine D2L receptors", "experimental": "(§1) The activity of F17464 was evaluated at recombinant dopaminergic receptors in vitro for its profile at D2 and D3 receptor. […] F17464 was also evaluated for its agonist, partial agonist, or antagonist activity at the dopamine D3 receptor by using the MAP-kinase activity test on human recombinant dopamine D3 receptors (Cussac et al., Mol. Pharmacol. 1999, 56, 1025-1030).\n(§2) As used herein, the term “selective D3 antagonist” refers to a D3 antagonist, as defined here above, that has more affinity for the D3 receptor than for the D2 receptor (D2S and/or D2L). Affinity of a compound for a receptor is usually expressed as a Ki value. Preferentially, the relative binding affinities are determined in competitive radioligand binding studies using cells expressing human recombinant dopamine D3, D2S or D2L receptors (Newman-Tancredi et al. British Journal of Pharmacology, 2007, 151, 237-252). More preferentially, it is defined in [^3H] spiperone binding studies using cells expressing human recombinant dopamine D3 receptors or human recombinant dopamine D2L or D2S receptors (Cussac et al. Naunyn-Schmiedeberg's Arch Pharmacol, 2000, 361, 569-572)."}, "[2]": {"biological_target": "T2, human recombinant dopamine D2S receptor (Homo sapiens, UniProt P14416)", "T2 construct": "expressed in transfected cells", "T2 sequence (P14416 1-414 isoform P14416-2)": "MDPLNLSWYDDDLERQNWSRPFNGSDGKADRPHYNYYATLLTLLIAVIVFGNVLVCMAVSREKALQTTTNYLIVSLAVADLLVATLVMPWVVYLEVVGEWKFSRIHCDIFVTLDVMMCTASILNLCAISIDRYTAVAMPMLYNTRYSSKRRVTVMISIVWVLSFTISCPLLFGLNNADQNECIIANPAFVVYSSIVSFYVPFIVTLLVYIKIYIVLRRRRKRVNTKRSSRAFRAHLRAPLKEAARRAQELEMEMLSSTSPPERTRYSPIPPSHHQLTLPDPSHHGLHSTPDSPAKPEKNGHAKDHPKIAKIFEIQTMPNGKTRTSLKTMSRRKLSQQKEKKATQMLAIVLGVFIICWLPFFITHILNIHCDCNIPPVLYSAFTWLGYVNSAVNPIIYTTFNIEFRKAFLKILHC", "test": "[3H] spiperone binding, cells expressing human recombinant dopamine D2S receptors", "experimental": "as §1, §2"}, "[3]": {"tested_on": "patients with acute exacerbation of schizophrenia", "test": "Double-blind placebo-controlled phase II study, patients with acute exacerbation of schizophrenia", "assay_type": "in vivo, human", "experimental": "N-(3-{4-[4-(8-oxo-8H-[1,3]dioxolo[4,5-g]chromen-7-yl)-butyl]-piperazin-1-yl}-phenyl)-methanesulfonamide hydrochloride has been tested in a placebo-controlled study of patients with an acute exacerbation of schizophrenia.\nThis double-blind, parallel group, multicenter study included patients with acute exacerbation of schizophrenia treated either with F17464 fixed dose 40 mg (20 mg bid) or placebo (randomization 1:1) for 6 weeks as antipsychotic monotherapy. The primary objective was to evaluate the efficacy of F17464 in comparison to placebo. The primary efficacy criterion was the PANSS (Positive and Negative Syndrome Scale) total score change from baseline to Day 43 on the Full Analysis Set (FAS).\nInclusion criteria included a well-documented diagnosis of schizophrenia for a minimum of 1 year, and a recent acute exacerbation characterized by a PANSS total score at screening ≥70 and <120 with no significant change of the PANSS positive subscore between the screening and randomization visits; and Clinical Global Impression of Severity (CGI-S) score ≥4.\nAll patients had discontinued previous treatments within the week prior to administration of study medication.\nFollowing screening, patients were maintained in hospital till the 3rd week of treatment. Patients who had CGI-I (Clinical Global Impression of Improvement) score of ≤3 after 3 or 4 weeks were then eligible for hospital discharge and could continue study participation as outpatients.\nThe PANSS scores of the tested patients were established each week.\nSchizophrenia History: Before Screening Visit • Patient with a current primary diagnosis of schizophrenia undergoing an acute exacerbation with prominent “active phase” symptoms, as described by the Diagnostic and Statistical Manual of Mental Disorders, 4th edition—Text Revision (DSM IV-TR) using the MINI 6.0 (Mini-International Neuropsychiatric Interview) for schizophrenia and psychotic disorders related to DSM IV-TR; • For a minimum of 1 year, well-documented diagnosis with the first hospitalization for acute exacerbation of schizophrenia; • Since the diagnosis of schizophrenia, the average number of hospitalizations should be no higher than 2 per year (the minimum duration of hospitalization should be more than 4 days); • During the year before screening visit, maximum 3 acute psychotic episodes that required hospitalization or change of antipsychotic medication or other therapeutic intervention; • Adequate clinical response to well-conducted treatment courses during previous acute episodes. A well conducted treatment course is defined as an antipsychotic treatment with the usual doses for at least 4 weeks. Current Acute Episode: • Structured Clinical Interview for the Positive And Negative Syndrome Scale (SCI-PANSS) with a PANSS total score ≥70 to <120 (at screening and randomization visits); • Rating of at least 4 (moderate) on at least 2 of the following 4 PANSS positive symptoms: delusions, hallucinatory behavior, conceptual disorganization, suspiciousness/persecution; • Clinical Global Impression of Severity (CGI-S) score ≥4 (moderate or severe). • Antipsychotic initiated for this acute episode and/or ongoing chronic antipsychotic treatment, with a maximum of 2 antipsychotics in total needed to be changed (due to inefficacy or safety reasons); • Hospitalization and/or treatment for the current psychotic episode for less than 2 weeks prior to screening visit; • No significant improvement of PANSS total score between enrolment (screening visit) and inclusion (randomization visit) corresponding to a score improvement <20% on positive symptoms subscale. Examination: • Normal physical examination results, vital signs and clinical laboratory test results or other results judged not clinically significant by the investigator; • Body mass index (BMI)≥18 and ≤35 kg/m^2 inclusive. […]"}, "D3": {"biological_target": "T3, D3 (Homo sapiens, UniProt P35462)", "T3 construct": "from tissue; host or cells: brain of healthy subjects in vivo (PET)", "T3 sequence (P35462 whole entry)": "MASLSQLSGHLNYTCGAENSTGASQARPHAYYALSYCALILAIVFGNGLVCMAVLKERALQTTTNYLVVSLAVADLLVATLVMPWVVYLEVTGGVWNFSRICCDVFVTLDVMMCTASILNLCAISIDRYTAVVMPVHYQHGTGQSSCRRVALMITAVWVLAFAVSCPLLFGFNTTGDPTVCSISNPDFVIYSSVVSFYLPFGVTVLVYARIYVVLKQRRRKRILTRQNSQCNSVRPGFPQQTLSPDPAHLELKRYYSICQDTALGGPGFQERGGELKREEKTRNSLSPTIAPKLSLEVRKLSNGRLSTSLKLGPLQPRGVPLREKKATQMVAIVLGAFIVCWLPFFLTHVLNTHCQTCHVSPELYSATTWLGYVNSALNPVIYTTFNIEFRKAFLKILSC", "details": "healthy subjects, after two single dose levels; cited from earlier work"}, "D2 receptor": {"tested_on": "D2 receptor", "details": "healthy subjects, after two single dose levels; cited from earlier work"}, "[4]": {"details": "F17464 versus placebo, FAS population n = 67"}, "[5]": {"details": "F17464 versus placebo, NS subgroup n = 29"}, "[6]": {"details": "NS subgroup versus FAS population"}, "[7]": {"details": "NS subgroup versus FAS population, score points"}, "[8]": {"details": "baseline to end of treatment, FAS"}}, "note": "Marks after values point to notes of the source that are not given here."}
{"smiles": "CS(=O)(=O)Nc1cccc(N2CCN(CCCCc3coc4cc5c(cc4c3=O)OCO5)CC2)c1", "note": "[F17464, N-(3-{4-[4-(8-oxo-8H-[1,3]dioxolo[4,5-g]chromen-7-yl)-butyl]-piperazin-1-yl}-phenyl)-methanesulfonamide]", "values": [{"measurement": "affinity for dopamine D2L receptor, times weaker than D3", "setting": "[1]; D2L versus D3", "result": 71, "unit": "times"}, {"measurement": "Ki", "setting": "[1]; [3H] spiperone binding", "result": 12.1, "unit": "nM"}, {"measurement": "affinity for dopamine D2S receptor, times weaker than D3", "setting": "[2]; D2S versus D3", "result": 38, "unit": "times"}, {"measurement": "Ki", "setting": "[2]; [3H] spiperone binding", "result": 6.5, "unit": "nM"}, {"measurement": "clinically relevant hepatic, metabolic or cardio-vascular disorder", "setting": "[3]; 20 mg bid, 6 weeks", "result": "no clinically relevant hepatic, metabolic (including clinically relevant weight gain) or cardio-vascular disorder"}, {"measurement": "overall incidence of treatment-emergent adverse events (TEAEs)", "setting": "[3]; 20 mg bid, 6 weeks", "result": 70.1, "unit": "%"}, {"measurement": "Treatment effect on change from baseline, PANSS general psychopathology [LSmean (SE)]", "setting": "[3]; [4]", "result": "−3.6 (1.3) *"}, {"measurement": "Treatment effect on change from baseline, PANSS negative symptoms [LSmean (SE)]", "setting": "[3]; [4]", "result": "−0.7 (0.6)^"}, {"measurement": "Treatment effect on change from baseline, PANSS positive symptoms [LSmean (SE)]", "setting": "[3]; [4]", "result": "−1.9 (1.0) *"}, {"measurement": "Treatment effect on change from baseline, PANSS general psychopathology [LSmean (SE)]", "setting": "[3]; [5]", "result": "−6.4 (2.0) *"}, {"measurement": "Treatment effect on change from baseline, PANSS negative symptoms [LSmean (SE)]", "setting": "[3]; [5]", "result": "−2.7 (1.1) *"}, {"measurement": "Treatment effect on change from baseline, PANSS positive symptoms [LSmean (SE)]", "setting": "[3]; [5]", "result": "−4.3 (1.6) *"}, {"measurement": "Treatment effect on change from baseline, PANSS total score [LSmean (SE)]", "setting": "[3]; [5]", "result": "−13 (4.1) *"}, {"measurement": "PANSS general psychopathology, change from baseline [LSmean (SE)]", "setting": "[3]; FAS population n = 67, Day 43", "result": "−6.6 (1.0) *"}, {"measurement": "PANSS negative symptoms, change from baseline [LSmean (SE)]", "setting": "[3]; FAS population n = 67, Day 43", "result": "−1.7 (0.4)^"}, {"measurement": "PANSS positive symptoms, change from baseline [LSmean (SE)]", "setting": "[3]; FAS population n = 67, Day 43", "result": "−6.3 (0.8) *"}, {"measurement": "Discontinuation for Adverse Event, number of patients", "setting": "[3]; FAS, n = 67", "result": 2}, {"measurement": "Discontinuation for Adverse Event, percent of patients", "setting": "[3]; FAS, n = 67", "result": "(3.0%)"}, {"measurement": "Discontinuation for Lack Of Efficacy/Worsening of schizophrenia, number of patients", "setting": "[3]; FAS, n = 67", "result": 11}, {"measurement": "Discontinuation for Lack Of Efficacy/Worsening of schizophrenia, percent of patients", "setting": "[3]; FAS, n = 67", "result": "(16.4%)"}, {"measurement": "reduction of PANSS total score versus placebo over time", "setting": "[3]; From Day 22, FAS, LOCF", "result": "statistically higher than in placebo group"}, {"measurement": "PANSS general psychopathology, change from baseline [LSmean (SE)]", "setting": "[3]; NS subgroup n = 29, Day 43", "result": "−9.3 (1.5) *"}, {"measurement": "PANSS negative symptoms, change from baseline [LSmean (SE)]", "setting": "[3]; NS subgroup n = 29, Day 43", "result": "−4.3 (0.8) *"}, {"measurement": "PANSS positive symptoms, change from baseline [LSmean (SE)]", "setting": "[3]; NS subgroup n = 29, Day 43", "result": "−8.4 (1.2) *"}, {"measurement": "PANSS total score, adjusted change from baseline [LSmean (SE)]", "setting": "[3]; NS subgroup n = 29, Day 43", "result": "−21.8 (2.9) *"}, {"measurement": "Difference of treatment effect, PANSS general psychopathology, percent", "setting": "[3]; [6]", "result": 78, "unit": "%"}, {"measurement": "Difference of treatment effect, PANSS negative symptoms, percent", "setting": "[3]; [6]", "result": 285, "unit": "%"}, {"measurement": "Difference of treatment effect, PANSS positive symptoms, percent", "setting": "[3]; [6]", "result": 126, "unit": "%"}, {"measurement": "Difference of treatment effect, PANSS total score, percent", "setting": "[3]; [6]", "result": 110, "unit": "%"}, {"measurement": "Difference of treatment effect, PANSS general psychopathology", "setting": "[3]; [7]", "result": 2.8}, {"measurement": "Difference of treatment effect, PANSS negative symptoms", "setting": "[3]; [7]", "result": 2}, {"measurement": "Difference of treatment effect, PANSS positive symptoms", "setting": "[3]; [7]", "result": 2.4}, {"measurement": "Difference of treatment effect, PANSS total score", "setting": "[3]; [7]", "result": 6.8}, {"measurement": "Response rate, PANSS total score reduction by 20%", "setting": "[3]; [8]", "result": 49.3, "unit": "%"}, {"measurement": "Response rate, PANSS total score reduction by 30%", "setting": "[3]; [8]", "result": 27.0, "unit": "%"}, {"measurement": "Time to first sustained PANSS 20% or 30% response", "setting": "[3]; compared to placebo group, from D21 up to Day 42", "result": "Shorter"}, {"measurement": "PANSS positive score and positive factor, defined by Marder, versus placebo", "setting": "[3]; secondary criteria, FAS", "result": "statistically significantly greater"}, {"measurement": "D3 binding rate (PET)", "setting": "D3", "result": "strong and long-lasting"}, {"measurement": "binding rate to D2 receptor (PET)", "setting": "D2 receptor", "result": "modest"}]}
